The values that follow come from PubChem BioAssay AID449764 (Southern Research Specialized Biocontainment Screening …, 2010).

Each structure is given as a SMILES string. pIC50: −log10 of the molar value. Some results are limits rather than exact numbers.

For this test, the system named is Mycobacterium tuberculosis H37Rv growth inhibition, no glycerol. In words: Confirmatory growth inhibition assay, Mycobacterium tuberculosis H37Rv, absence of glycerol (AID 449764).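 For all read-outs here: growth read after 7 days of incubation.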 To be noted: for IC90: measured here: IC90 growth inhibition.

Usually pIC50 stands for the IC50 on a negative log10 scale, so that one unit is a factor of ten. A word on the IC90: it is the concentration at which the effect reaches the 90% level. Read a high IC90 as weaker potency. Consider `CCc1ccc(-c2cc(C)no2)cc1S(=O)(=O)NCCCN1CCN(c2ccccc2)CC1`, for which the pIC50 is 4.41 and the IC90 was 47.2 µM.
For the molecule `COc1cc(N)c(Cl)cc1C(=O)N[C@H]1CCN(CCCOc2ccc(F)cc2)C[C@H]1OC`, the pIC50 was 4.31 and the IC90 is 89 µM.
Taken in the same sequence, the figures for `Cc1nn(-c2ccccc2)c(N)c1C(c1ccc(C(C)C)cc1)c1c(C)nn(-c2ccccc2)c1N` were 4.64 and 25.8 µM.
For `O=C(Nc1ccn(Cc2ccccc2F)n1)c1ccc(COc2ccccc2Cl)cc1`, the pIC50 was 4.95 and the IC90 was 16.1 µM.
Taken in the same sequence, the figures for `COCCCn1c(SCc2cccc(OC)c2)nc2cc(OC)c(OC)cc2c1=N` were 4.47 and 44.6 µM.
The corresponding values for `CC1CCCC(NC(=O)NC(=O)CCl)C1C` (centres undefined) are 5.06 and 14.3 µM.
The corresponding values for `CCOC(=O)CNC(=O)CNC(=O)c1nn(-c2ccc(OC)c(Cl)c2)c(=O)c2ccccc12` are 4.42 and over 100 µM.
As for `CCOCCN1CCN(c2c(CC)c(C)nc3cc(-c4cc(OC)cc(OC)c4)nn23)CC1`, the pIC50 is 4.61 and the IC90 worked out at 38.2 µM.
With `Cc1ccc(C2C3=C(CC(C)(C)CC3=O)N=C3c4ccccc4C(=O)C32)cc1` (centres undefined), the pIC50 is 4.20 and the concentration for an effect of 90% (IC90) came to 87.5 µM.
The corresponding values for `COc1cc2c(cc1OC)CN(CCC(=O)c1ccc(Br)cc1)CC2` are 4.63 and 26.7 µM.
As to `O=c1c2c(-c3ccccc3)csc2ncn1/N=C/c1ccc(O)c([N+](=O)[O-])c1`, the pIC50 was 4.43 and the IC90 came to 59 µM.
Consider `CC(C)(C)c1csc(NC(=O)c2c(F)c(F)c(F)c(F)c2F)n1`, for which the pIC50 was 4.68 and the IC90 turned out to be 29.4 µM.
Turning to `COc1cc(/C=C2\C(=O)N(c3ccc(S(N)(=O)=O)cc3)N=C2C)ccc1OC(=O)c1ccco1`, the pIC50 was 4.65 and the IC90 stood at 26.1 µM.
Regarding `O=C(c1ccc(-c2ccccc2)c(F)c1)C1CCCN(C(=O)c2cncs2)C1` (centres undefined), the pIC50 is 4.49 and the IC90 came out at 49.4 µM.
Take `CCCn1nnc(NC(=O)COc2ccc(CC)cc2)n1`: the pIC50 was 4.32 and the IC90 is over 100 µM.
Taken in the same sequence, the figures for `Ic1ccccc1CN[C@@H]1C2CCN(CC2)[C@@H]1C(c1ccccc1)c1ccccc1` were 4.54 and 42.7 µM.
Turning to `O=C(Nc1ccc(OCC(F)(F)C(F)F)c(C(F)(F)F)c1)c1ccc(Cl)cc1`, the pIC50 is 4.48 and the IC90 worked out at 46.9 µM.
Consider `COc1ccc2nc(NC(=O)C3CCCN(S(=O)(=O)c4cccs4)C3)sc2c1` (centres undefined), for which the negative-log IC50 (pIC50) is 4.83 and the IC90 is 24.2 µM.
`O=C(COC(=O)C1=COCCO1)NCc1ccc(Cl)cc1`: the pIC50 was 4.55 and the IC90 is over 100 µM.
As for `CC(=O)N1CCN(c2ccc(Oc3ccc([N+](=O)[O-])c(C(F)(F)F)c3)cc2)CC1`, the pIC50 was 4.03 and the IC90 is over 100 µM.
Consider `O=[N+]([O-])c1cn(-c2nc(-c3ccco3)cc(C(F)(F)F)n2)cn1`, for which the pIC50 was 5.42 and the concentration for an effect of 90% (IC90) is over 100 µM.
The corresponding values for `COc1ccc(/C=C/CN2CCC(CO)(Cc3ccccc3Cl)CC2)cc1` are 4.61 and 27.5 µM.
Taken in the same sequence, the figures for `Cc1[nH]c2ccccc2c1/C=N/Nc1nc(Nc2ccccc2)nc(N2CCOCC2)n1` were 5.18 and 13.6 µM.
The corresponding values for `CCCCCCCCn1c2c(c(=N)c3c1CCC3)CCCC2` are 4.65 and 25.8 µM.
For `Cc1cc(C)c(C)c(N=Nc2nc3ccccc3n2C)c1C`, the pIC50 is 4.95 and the IC90 stood at 12.6 µM.
The corresponding values for `Cc1ccc(C(=O)c2cc(C)sc2NC(=O)CN2CCN(C(=O)c3ccco3)CC2)cc1` are 4.83 and 27.4 µM.
Take `Cc1c(Cl)ccc2c1NC(=O)[C@]21N[C@@H](Cc2ccccc2)[C@H]2C(=O)N(c3ccc(F)cc3)C(=O)[C@H]21`: the pIC50 was 4.63 and the IC90 worked out at 26.6 µM.
`CCOc1ccc(NCc2cccn2-c2nnc(N3CCC(C(=O)NCCCN4C(C)CCCC4C)CC3)s2)cc1` (centres undefined): the pIC50 is 4.03 and the IC90 was over 100 µM.
As for `Clc1ccc(-c2[nH]ncc2N=Nc2ccccc2)cc1`, the pIC50 was 4.20 and the IC90 was over 100 µM.
With `CSc1ncc(C(=O)Nc2ccc(Br)cn2)c(C)n1`, the pIC50 was 5.81 and the IC90 worked out at 2.93 µM.
Regarding `Cc1ccc(CNC(=O)c2sc3nc4c(c(C(F)(F)F)c3c2N)CCC4)cc1`, the pIC50 is 4.33 and the IC90 was determined as 50.9 µM.
Taken in the same sequence, the figures for `C=CCOc1ccc2c(c1)C(=NO)c1cc(OCC=C)ccc1-2` were 4.55 and over 100 µM.
The corresponding values for `O=C(/C(=C/c1ccc(Cl)cc1)c1nc2ccccc2[nH]1)c1cccs1` are 4.45 and 96.8 µM.
Taken in the same sequence, the figures for `C=C(CCC(=O)c1ccccc1)C(=O)c1ccccc1` were 4.74 and 25.1 µM.
`CC(C)OC(=O)CCCCCN1C(=O)CSC1=S`: the pIC50 was 4.94 and the IC90 was determined as 19.2 µM.
On to `CCOC(=O)CCCc1ccc(/C(C)=N/NC(N)=S)cc1`, for which the negative logarithm of the IC50 (pIC50) was 5.08 and the IC90 was determined as 25 µM.
As for `CCc1cc(C(=O)NNC(=O)CCl)sc1C`, the pIC50 is 5.30 and the IC90 was determined as 7.55 µM.
The corresponding values for `Cc1ccc(S(=O)(=O)N(C)c2ccc(OCC(=O)OCc3ccc(C#N)cc3)cc2)cc1` are 4.76 and 28.3 µM.
In the case of `Cc1cc(C)n(-c2cc(C(C)(C)C)nc3c(-c4ccccc4)cnn23)n1`, the pIC50 was 4.44 and the IC90 came to 47.3 µM.
Taken in the same sequence, the figures for `CCOc1ccc(NC(=S)Nc2ccc(C)c([N+](=O)[O-])c2)cc1` were 4.56 and over 100 µM.
The corresponding values for `Brc1ccc(N/N=C(/N=Nc2nn[nH]n2)c2ccccc2)cc1` are 4.84 and 23.3 µM.
With `COc1cccc(Nc2ccc([N+](=O)[O-])c3nonc23)c1`, the pIC50 is 5.00 and the IC90 stood at 14.5 µM.
Taken in the same sequence, the figures for `CCOc1ccc(-c2csc(/C(C#N)=C\c3ccc(O)c([N+](=O)[O-])c3)n2)cc1` were 4.78 and over 100 µM.
The corresponding values for `CC(NC(=O)CCl)c1ccc(Cl)c(Cl)c1` (centres undefined) are 5.39 and 7.74 µM.
With `CC1CCCN(Cc2c(O)ccc3c(=O)c(-c4nc5ccccc5s4)c(N)oc23)C1` (centres undefined), the pIC50 was 4.93 and the IC90 was 21 µM.
Taken in the same sequence, the figures for `O=C(CN1CCN(Cc2ccc(Cl)cc2)CC1)N/N=C/C=C/c1ccccc1[N+](=O)[O-]` were 4.44 and 45.6 µM.
Regarding `Cn1nc(-c2ccccn2)nc2c(=O)n(C)c(=O)nc1-2`, the pIC50 was 4.90 and the IC90 was determined as 13 µM.
In the case of `CCCn1c(=N)n(CC(=O)c2ccc(OCC(=O)OC)cc2)c2ccccc21`, the pIC50 is 4.70 and the IC90 was found to be 35.9 µM.
Taken in the same sequence, the figures for `Cc1cc2[nH]c3c(c[n+](C)c4ccccc34)c2cc1C` were 5.00 and 15.6 µM.
With `Cc1cnc(NC(=O)NCC2CCCC(CNC(=O)Nc3ncc(C)s3)C2)s1` (centres undefined), the pIC50 is 4.44 and the IC90 was over 50 µM.
Taken in the same sequence, the figures for `CCO[C@H]1OC(C(=O)NCc2nc3ccccc3[nH]2)=C[C@@H](c2csc3ccccc23)[C@@H]1CCCO` were 4.44 and 49.2 µM.
The corresponding values for `S=C(NCc1ccc(Cl)cc1)NC12CC3CC(CC(C3)C1)C2` are 5.42 and 28.1 µM.
As to `CC(Oc1ccc2ccccc2c1)C(=O)NNC(=S)NC(=O)c1ccco1` (centres undefined), the pIC50 is 4.65 and the 90% effect concentration (IC90) is 31.9 µM.
In the case of `COc1ccc(C(=O)OCC(=O)c2ccc(Br)s2)c(OC)c1`, the pIC50 is 4.13 and the IC90 was over 100 µM.
Taken in the same sequence, the figures for `CNC[C@H](Cc1cccc2ccccc12)NC[C@H](CCSC)NCC1CCC(C(C)(C)C)CC1` (some centres undefined) were 4.37 and 47.1 µM.
Taken in the same sequence, the figures for `CCCCCc1ccc(-c2cn(Cc3cccc(OC)c3)nn2)cc1` were 4.41 and over 100 µM.
With `c1ccc(CN2CCC(Nc3nc(-c4ccccc4)nc4ccccc34)CC2)cc1`, the pIC50 is 4.96 and the IC90 came out at 16.6 µM.
Taken in the same sequence, the figures for `Cc1ccc2c(c1)c1ncnc(N3CCc4ccccc4C3)c1n2C` were 4.13 and over 100 µM.
Take `CC(Oc1cc2oc(=O)c3c(c2cc1Cl)CCCC3)C(=O)NCc1ccccn1` (centres undefined): the IC90 was over 100 µM.
`Cc1ccc(C(=O)N2N=C(c3ccc(NS(C)(=O)=O)cc3)CC2c2cccs2)cc1` (centres undefined): the pIC50 was 4.63 and the IC90 was determined as 37.5 µM.
Taken in the same sequence, the figures for `O=C1CC(/C=C/c2ccc(Cl)cc2)=Nc2ccccc2N1` were 4.91 and 14.2 µM.
The corresponding values for `O=C(Oc1ccc(-c2cn3c(n2)SCC3)cc1)c1ccccc1` are 4.14 and over 100 µM.
As for `COc1cc(C)ccc1S(=O)(=O)N1CCN(C23CC4CC(CC(C4)C2)C3)CC1`, the pIC50 was 4.33 and the IC90 is 51.1 µM.
Regarding `COC(=O)C1C(O)C(C)C(O)C(C)/C=C\C=C(/C)C(=O)Nc2c(C)c(OC(C)=O)c3c(c2O)C(=O)C(C)=C2OCOC(=C23)/C(C)=C/C(C)(O)C(O)C(C)C1O` (centres undefined), the pIC50 is over 6.70 and the IC90 is under 0.2 µM.
With `O=C(CN1CCN(C(=O)COc2cccc(F)c2)CC1)Nc1ccc(Cl)c(C(F)(F)F)c1`, the pIC50 is 4.30 and the IC90 was found to be 57.4 µM.
With `CCOC(=O)c1nn(-c2ccc(C)cc2)c2nc(Nc3ccccc3)cc(=O)n12`, the pIC50 is 4.92 and the IC90 was 13.6 µM.
In the case of `O=C1C=C(c2ccc3[nH]ccc3c2)C[C@@H](c2ccc(Cl)cc2)C1`, the pIC50 is 4.07 and the IC90 is over 100 µM.
Regarding `COC(=O)N/N=C/c1c[n+]([O-])c2ccccc2[n+]1[O-]`, the pIC50 is 4.73 and the IC90 came out at 27.5 µM.
Regarding `COC(=O)CSc1ncnc2c1cnn2-c1ccc(C)cc1C`, the pIC50 is 5.22 and the IC90 came out at 6.82 µM.
The corresponding values for `C/C(O)=C\c1nc2ccccc2oc1=O` are 6.12 and 0.89 µM.
